“And” between values parts separate entries of the source, which are not always exact repeats. Equal values may be shown once.
How the values were obtained:
[1] = target: T1, Epidermal growth factor receptor (Homo sapiens, UniProt P00533); test: Inhibition of EGF-stimulated tyrosine phosphorylation in A431 cells.
[2] = test system: Balb/MK; test: Inhibition of proliferation of EGF-dependent BALB/MK cells.; assay type: functional, cell-based; details: Mus musculus
[3] = target: Platelet-derived growth factor receptor (Homo sapiens, UniProt P09619+P16234); test: Inhibition of PDGF stimulated tyrosine phosphorylation in BALB/c3t3 cells.
[4] = target: T2, Proto-oncogene tyrosine-protein kinase Src (Homo sapiens, UniProt P12931); test: Inhibitory activity against c-Src tyrosine kinase
T2 sequence (P12931 2-536 limits assumed): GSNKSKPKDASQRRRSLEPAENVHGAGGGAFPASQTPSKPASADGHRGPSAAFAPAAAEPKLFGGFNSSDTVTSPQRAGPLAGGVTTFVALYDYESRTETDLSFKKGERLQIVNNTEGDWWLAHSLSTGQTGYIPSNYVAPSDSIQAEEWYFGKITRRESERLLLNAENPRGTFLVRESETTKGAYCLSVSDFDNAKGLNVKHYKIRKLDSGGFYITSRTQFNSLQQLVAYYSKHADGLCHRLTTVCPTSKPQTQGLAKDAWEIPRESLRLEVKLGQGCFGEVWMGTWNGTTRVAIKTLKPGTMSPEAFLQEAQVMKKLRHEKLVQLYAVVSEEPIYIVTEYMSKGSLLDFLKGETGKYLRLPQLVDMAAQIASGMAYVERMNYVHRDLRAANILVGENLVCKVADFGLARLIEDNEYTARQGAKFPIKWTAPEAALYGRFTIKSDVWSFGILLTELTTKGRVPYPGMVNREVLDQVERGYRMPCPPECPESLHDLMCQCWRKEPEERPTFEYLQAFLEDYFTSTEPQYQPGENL

[5] = target: T1, Epidermal growth factor receptor
Description: Inhibitory activity against epidermal growth factor receptor tyrosine kinase.

[6] = target: Protein kinase C alpha type (Homo sapiens, UniProt P17252); test: Inhibitory activity against protein kinase C alpha […] kinase.
[7] = target: Cyclin-dependent kinase 1 (Homo sapiens, UniProt P06493); test: Inhibitory activity against CDK1 Ser/Thr kinase
Chain of Cyclin-dependent kinase 1 (P06493 whole entry): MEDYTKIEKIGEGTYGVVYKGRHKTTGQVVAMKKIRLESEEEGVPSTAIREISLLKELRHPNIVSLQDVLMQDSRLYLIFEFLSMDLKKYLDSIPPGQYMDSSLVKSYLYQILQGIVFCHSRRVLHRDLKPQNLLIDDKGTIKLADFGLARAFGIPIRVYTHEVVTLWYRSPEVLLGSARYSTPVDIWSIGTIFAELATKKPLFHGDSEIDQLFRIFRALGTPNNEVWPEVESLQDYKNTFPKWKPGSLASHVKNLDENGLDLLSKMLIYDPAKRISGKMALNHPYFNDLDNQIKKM

[8] = target: Tyrosine-protein kinase ABL1 (Homo sapiens, UniProt P00519)
Chain of Tyrosine-protein kinase ABL1 (P00519 whole entry, looked up): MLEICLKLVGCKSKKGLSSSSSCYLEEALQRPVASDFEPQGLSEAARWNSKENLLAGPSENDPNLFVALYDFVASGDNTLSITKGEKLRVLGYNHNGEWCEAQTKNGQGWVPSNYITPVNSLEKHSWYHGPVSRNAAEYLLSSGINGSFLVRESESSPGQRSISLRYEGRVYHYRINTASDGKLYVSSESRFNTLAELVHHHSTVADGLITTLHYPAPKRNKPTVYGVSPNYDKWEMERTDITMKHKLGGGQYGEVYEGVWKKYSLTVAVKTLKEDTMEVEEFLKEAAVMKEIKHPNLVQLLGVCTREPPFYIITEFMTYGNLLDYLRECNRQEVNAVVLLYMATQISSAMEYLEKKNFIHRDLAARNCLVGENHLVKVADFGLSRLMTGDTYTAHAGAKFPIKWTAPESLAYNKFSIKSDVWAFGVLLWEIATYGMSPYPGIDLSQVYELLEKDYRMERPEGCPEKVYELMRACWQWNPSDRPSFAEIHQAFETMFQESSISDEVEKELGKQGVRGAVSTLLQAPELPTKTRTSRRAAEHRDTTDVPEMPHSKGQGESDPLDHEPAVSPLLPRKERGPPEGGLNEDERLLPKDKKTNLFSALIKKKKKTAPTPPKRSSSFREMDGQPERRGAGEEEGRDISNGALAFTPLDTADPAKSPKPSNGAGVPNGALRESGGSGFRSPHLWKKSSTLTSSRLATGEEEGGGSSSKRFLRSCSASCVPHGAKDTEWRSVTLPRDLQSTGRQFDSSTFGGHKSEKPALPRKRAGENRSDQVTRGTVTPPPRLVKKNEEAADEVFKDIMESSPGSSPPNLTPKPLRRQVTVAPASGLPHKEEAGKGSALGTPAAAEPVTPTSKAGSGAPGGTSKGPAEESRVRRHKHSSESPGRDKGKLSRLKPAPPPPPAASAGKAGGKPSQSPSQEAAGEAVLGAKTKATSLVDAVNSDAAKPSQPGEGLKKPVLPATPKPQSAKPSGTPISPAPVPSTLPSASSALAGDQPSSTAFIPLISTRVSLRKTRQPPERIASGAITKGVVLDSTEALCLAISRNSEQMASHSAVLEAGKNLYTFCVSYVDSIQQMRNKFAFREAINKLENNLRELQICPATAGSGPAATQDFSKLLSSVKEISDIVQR
Description: Inhibitory activity against v-Abl tyrosine kinase

[9] = target: T2, Proto-oncogene tyrosine-protein kinase Src; test: Inhibition of c-Src tyrosine kinase
[10] = test system: A-431; test: In vivo activity against A431 xenografts in mice at 50 mg/kg ip dose; assay type: functional; details: route intraperitoneal
[11] = test system: A-431; test: In vivo activity against A431 xenografts in mice at 12.5 mg/kg peroral dose; assay type: functional; details: route oral
[12] = test system: A-431; test: In vivo activity against A431 xenografts in mice at 12.5 mg/kg ip dose; assay type: functional; details: route intraperitoneal
[13] = test system: Balb/MK; test: Inhibition of proliferation of EGF-dependent BALB/MK cells; assay type: functional, cell-based; details: Mus musculus

T1 sequence (P00533 whole entry): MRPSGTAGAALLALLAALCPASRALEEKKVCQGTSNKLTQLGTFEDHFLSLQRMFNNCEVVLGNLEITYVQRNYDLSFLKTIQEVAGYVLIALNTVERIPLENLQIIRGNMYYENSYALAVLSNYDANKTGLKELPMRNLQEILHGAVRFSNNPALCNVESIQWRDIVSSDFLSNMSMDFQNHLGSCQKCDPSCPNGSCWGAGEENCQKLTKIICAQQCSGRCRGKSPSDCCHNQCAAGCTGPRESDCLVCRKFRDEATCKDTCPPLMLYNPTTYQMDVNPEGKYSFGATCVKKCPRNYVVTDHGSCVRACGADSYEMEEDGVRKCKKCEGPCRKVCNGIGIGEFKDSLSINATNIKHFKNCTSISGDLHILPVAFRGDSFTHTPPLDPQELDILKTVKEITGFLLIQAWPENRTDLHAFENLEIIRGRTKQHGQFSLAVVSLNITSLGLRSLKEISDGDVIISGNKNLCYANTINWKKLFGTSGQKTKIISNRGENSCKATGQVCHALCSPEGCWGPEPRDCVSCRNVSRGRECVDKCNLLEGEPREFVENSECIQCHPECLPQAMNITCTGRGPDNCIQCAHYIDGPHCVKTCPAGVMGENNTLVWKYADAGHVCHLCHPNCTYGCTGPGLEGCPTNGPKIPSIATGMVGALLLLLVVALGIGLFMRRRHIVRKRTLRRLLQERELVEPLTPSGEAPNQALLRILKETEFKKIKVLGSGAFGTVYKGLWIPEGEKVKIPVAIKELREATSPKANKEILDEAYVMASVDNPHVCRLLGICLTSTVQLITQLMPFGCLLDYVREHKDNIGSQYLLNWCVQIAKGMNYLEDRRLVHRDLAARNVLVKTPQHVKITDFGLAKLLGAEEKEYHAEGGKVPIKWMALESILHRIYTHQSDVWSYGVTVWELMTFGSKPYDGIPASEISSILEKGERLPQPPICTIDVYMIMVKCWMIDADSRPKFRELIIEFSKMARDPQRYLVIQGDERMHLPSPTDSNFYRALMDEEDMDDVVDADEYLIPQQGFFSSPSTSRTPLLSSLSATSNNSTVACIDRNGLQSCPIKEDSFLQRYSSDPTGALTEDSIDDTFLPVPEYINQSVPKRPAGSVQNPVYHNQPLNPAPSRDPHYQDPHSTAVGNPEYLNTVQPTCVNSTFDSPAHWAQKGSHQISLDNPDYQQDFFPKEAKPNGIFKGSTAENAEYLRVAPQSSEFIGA

Row | Structure (SMILES) | IC50 [5] [µM] | IC50 [1] [µM] | IC50 [2] [µM] | IC50 [3] [µM] | IC50 [4] [µM] | IC50 [6] [µM] | IC50 [7] [µM] | IC50 [8] [µM] | IC50 [9] [µM] | T/C [10] | T/C [11] [%] | T/C [12] [%] | IC50 [13] [µM]
1 | Clc1cccc(Nc2[nH]cnc3nnc(-c4ccccc4)c2-3)c1 | 0.019 | 0.03 | 0.82 | > 10 | – | > 10 | 2.8 | 3.76 | > 10 | – | – | – | –
2 | Clc1cccc(Nc2[nH]nc3ncnc(NCc4ccccc4)c23)c1 | 0.87 | 1.5 | 49.9 | > 10 | > 10 | 4.5 | 9 | > 10 | – | – | – | – | –
3 | Cc1cccc(Nc2ncnc3[nH]nc(Nc4cccc(Cl)c4)c23)c1 | 0.13 | 0.15 | 2.7 | > 10 | – | 4.7 | – | 1.65 | 8.08 | 21% and 23% | 44 | 27 | –
4 | Nc1[nH]cnc2nnc(Nc3cccc(Cl)c3)c1-2 | 0.16 | 35 | 14 | > 10 | 6 | 24 | – | 0.41 | – | – | – | – | –
5 | Oc1cccc(Nc2[nH]nc3ncnc(Nc4cccc(Cl)c4)c23)c1 | 0.001 | 0.004 | 0.46 | > 10 | 0.22 | 0.56 | 3 | 0.26 | – | – | – | – | –
6 | Nc1nc(N)c2c(Nc3cccc(Cl)c3)[nH]nc2n1 | 0.22 | 9 | 2.87 | > 10 | 6 | 24 | – | 0.41 | – | – | – | – | –
7 | Oc1ccc(Nc2[nH]nc3ncnc(Nc4cccc(Cl)c4)c23)cc1 | 0.008 | 0.04 | 1.06 | > 10 | 0.4 | > 1 | > 1 | 0.15 | – | – | – | – | –
8 | COc1ccc(CNc2[nH]nc3ncnc(Nc4cccc(Cl)c4)c23)cc1 | 0.007 | 0.02 | 0.86 | > 10 | > 10 | > 100 | 5 | > 10 | – | – | – | – | –

Further lines, with some results ahead:

Row | IC50 [5] [µM] | Structure (SMILES) | IC50 [1] [µM] | IC50 [2] [µM] | IC50 [3] [µM] | IC50 [4] [µM] | IC50 [6] [µM] | IC50 [7] [µM] | IC50 [8] [µM] | IC50 [9] [µM] | T/C [10] | T/C [11] [%] | T/C [12] [%] | IC50 [13] [µM]
9 | 0.006 | Oc1ccc(-c2[nH]nc3ncnc(Nc4cccc(Cl)c4)c23)cc1 | 0.5 | 0.56 | > 10 | 8.55 | 1.85 | 0.26 | 0.24 | – | – | – | – | –
10 | 0.27 | O=[N+]([O-])c1cccc(-c2[nH]nc3ncnc(Nc4cccc(Cl)c4)c23)c1 | > 100 | > 50 | > 10 | 9.8 | > 10 | > 100 | > 10 | – | – | – | – | –
11 | 0.13 | Clc1cccc(Nc2[nH]nc3ncnc(Nc4cccc(Br)c4)c23)c1 | < 0.8 | 1.43 | > 10 | – | 3.8 | – | 1.36 | > 10 | – | – | – | –
12 | 450 | Cc1c(C)n(C)c2ncnc(Nc3cccc(Cl)c3)c12 | – | – | – | – | – | – | – | – | – | – | – | –
13 | > 10 | CC(C)(C)OC(=O)Nc1ccc(Nc2[nH]nc3ncnc(Nc4cccc(Cl)c4)c23)cc1 | > 100 | > 10 | > 10 | > 10 | > 10 | 57 | > 10 | – | – | – | – | –
14 | 0.008 | COc1cccc(Nc2[nH]nc3ncnc(Nc4cccc(Cl)c4)c23)c1 | 0.8 | 0.95 | > 10 | 7.8 | 4.7 | 4.3 | 3.4 | – | – | – | – | –
15 | 0.084 | Clc1cccc(Nc2[nH]nc3ncnc(Nc4ccccc4)c23)c1 | 1 | 2.56 | > 10 | 2.25 | 7.8 | – | 1.36 | – | – | – | – | –
16 | 0.007 | Clc1cccc(Nc2[nH]cnc3nnc(NCc4ccccc4)c2-3)c1 | 0.003 | 0.3 | > 10 | > 10 | 10 | 7.4 | 6.6 | – | – | – | – | –
17 | 0.8 | Nc1ncnc2c1c(-c1ccccc1)nn2-c1ccccc1 | – | – | > 10 | – | > 100 | – | > 10 | – | – | – | – | > 50

— ChEMBL document CHEMBL1130217, “Use of a pharmacophore model for the design of EGF-R tyrosine kinase inhibitors: 4-(phenylamino)pyrazolo[3,4-d]pyrimidines” (J Med Chem, 1997)
